16 compounds from PubChem BioAssay AID248 (DTP/NCI, 2004) can be followed below.

Structures are written as SMILES. “And” between values parts separate entries of the source, which are not always exact repeats. Equal entries are not always repeated. Toxic doses and inconclusive results are not listed.

The subject of the assay is L1210 leukemia ip in BDF1 mice, survival T/C. As to the kind of experiment: NCI In Vivo Anticancer Drug Screen. Data for tumor model L1210 Leukemia (intraperitoneal) in B6D2F1 (BDF1) mice. Particulars: endpoint: mean survival time, higher = longer survival. In a few lines:
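Read-out is survival time, reported as the treated-group measurement over the vehicle-control measurement.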

The mark [1] stands for this setting: dose: 400.0 mg/kg/injection, schedule: Q04DX002 (ip), vehicle: saline with Tween-80.
Where [2] appears, read: dose: 100.0 mg/kg/injection, schedule: Q01DX009 (ip), vehicle: saline with Tween-80.
The mark [3] stands for this setting: dose: 100.0 mg/kg/injection, schedule: Q04DX003 (ip), vehicle: saline with Tween-80.
Setting [4] is: dose: 100.0 mg/kg/injection, schedule: Q04DX003 (ip), vehicle: saline.
Setting [5] is: dose: 200.0 mg/kg/injection, schedule: Q04DX003 (ip), vehicle: saline.

`c1ccc(-c2cnc(-c3ccccc3)cn2)cc1`: the T/C reads like this: (dose: 25.6 mg/kg/injection, schedule: Q04DX002 (ip), vehicle: saline with Tween-80) 112 % of control; (dose: 64.0 mg/kg/injection, schedule: Q04DX002 (ip), vehicle: saline with Tween-80) 96 % of control; (dose: 160.0 mg/kg/injection, schedule: Q04DX002 (ip), vehicle: saline with Tween-80) 93 % of control; under setting [1], 104 % of control.

In the case of `CCOC(=S)SCCC(=O)O`, under setting [2], the T/C is 95 % of control.

Turning to `CCOc1ccn(C2OC(COC(C)=O)C(OC3OC(COC(C)=O)C(OC(C)=O)C(OC(C)=O)C3OC(C)=O)C(OC(C)=O)C2OC(C)=O)c(=O)n1` (stereo not given), the T/C runs as follows: (dose: 22.5 mg/kg/injection, schedule: Q01DX001 (ip), vehicle: carboxymethylcellulose (CMC)) 120 % of control; (dose: 45.0 mg/kg/injection, schedule: Q01DX001 (ip), vehicle: carboxymethylcellulose (CMC)) 103 % of control; (dose: 90.0 mg/kg/injection, schedule: Q01DX001 (ip), vehicle: carboxymethylcellulose (CMC)) 100 % of control; (dose: 180.0 mg/kg/injection, schedule: Q01DX001 (ip), vehicle: carboxymethylcellulose (CMC)) 100 % of control.

As for `CC(C)C1=CC23CCC4C(C)(C(=O)Cl)CCCC4(C)C2CC1C1(Br)C(=O)OC(=O)C31Br` (stereo not given), the T/C reads like this: (dose: 75.0 mg/kg/injection, schedule: Q01DX001 (ip), vehicle: other) 93 % of control; (dose: 150.0 mg/kg/injection, schedule: Q01DX001 (ip), vehicle: other) 88 % of control; (dose: 300.0 mg/kg/injection, schedule: Q01DX001 (ip), vehicle: other) 91 % of control.

For `CCOC(=O)C(O)c1ccc[nH]1` (stereo not given), the T/C was 115 % of control (dose: 100.0 mg/kg/injection, schedule: Q01DX001 (ip), vehicle: saline with Tween-80); 89 % of control under setting [3]; 115 % of control (dose: 200.0 mg/kg/injection, schedule: Q01DX001 (ip), vehicle: saline with Tween-80); 111 % of control (dose: 400.0 mg/kg/injection, schedule: Q01DX001 (ip), vehicle: saline with Tween-80); 95 % of control (dose: 400.0 mg/kg/injection, schedule: Q04DX003 (ip), vehicle: saline with Tween-80).

In the case of `NNc1nncc(-c2ccccc2)n1`, the T/C is 100 % of control (dose: 25.0 mg/kg/injection, schedule: Q01DX001 (ip), vehicle: other); 103 % of control (dose: 50.0 mg/kg/injection, schedule: Q01DX001 (ip), vehicle: other); 105 % of control (dose: 200.0 mg/kg/injection, schedule: Q01DX001 (ip), vehicle: other).

Take `COC(c1ccccc1)(c1ccccc1)c1ccccc1`: the T/C (dose: 50.0 mg/kg/injection, schedule: Q01DX001 (ip), vehicle: saline) is 91 % of control; the T/C (dose: 100.0 mg/kg/injection, schedule: Q01DX001 (ip), vehicle: saline) is 103 % of control; the T/C (dose: 200.0 mg/kg/injection, schedule: Q01DX001 (ip), vehicle: saline) is 101 % of control; the T/C (dose: 400.0 mg/kg/injection, schedule: Q01DX001 (ip), vehicle: saline) is 95 % of control.

As for `CN(C)C(=S)[S][Pb]([c]1ccccc1)([c]1ccccc1)[c]1ccccc1`, the T/C reads like this: (dose: 5.0 mg/kg/injection, schedule: Q01DX001 (ip), vehicle: steriod suspending solution) 104 % of control; (dose: 10.0 mg/kg/injection, schedule: Q01DX001 (ip), vehicle: steriod suspending solution) 100 % of control; (dose: 20.0 mg/kg/injection, schedule: Q01DX001 (ip), vehicle: steriod suspending solution) 105 % of control; (dose: 40.0 mg/kg/injection, schedule: Q01DX001 (ip), vehicle: steriod suspending solution) 96 % of control; (dose: 80.0 mg/kg/injection, schedule: Q01DX001 (ip), vehicle: steriod suspending solution) 102 % of control.

With `CC[C@]12CN3CCc4c([nH]c5ccccc45)[C@@](C(=O)OC)(c4cc5c(cc4OC)N(C)[C@H]4[C@@](O)(C(=O)OC)[C@H](OC(C)=O)[C@]6(CC)C=CCN7CC[C@]54[C@@H]76)CC(C3)[C@H]1O2` (stereo not given in full), the T/C (dose: 0.37 mg/kg/injection, schedule: Q01DX009 (ip), vehicle: saline) is 108 % of control; the T/C (dose: 0.75 mg/kg/injection, schedule: Q01DX009 (ip), vehicle: Klucel (hydroxypropylcellulose) (HPC)) was 100 % of control; the T/C (dose: 1.5 mg/kg/injection, schedule: Q01DX002 (ip), vehicle: saline) is 108 % of control; the T/C (dose: 1.5 mg/kg/injection, schedule: Q01DX009 (ip), vehicle: Klucel (hydroxypropylcellulose) (HPC)) is 105 % of control; the T/C (dose: 1.5 mg/kg/injection, schedule: Q01DX009 (ip), vehicle: saline) was 97 % of control and 108 % of control and 114 % of control; the T/C (dose: 3.0 mg/kg/injection, schedule: Q01DX002 (ip), vehicle: saline) was 115 % of control. For the same compound, the T/C reads like this: (dose: 3.0 mg/kg/injection, schedule: Q01DX009 (ip), vehicle: Klucel (hydroxypropylcellulose) (HPC)) 110 % of control; (dose: 6.0 mg/kg/injection, schedule: Q01DX002 (ip), vehicle: saline) 117 % of control; (dose: 6.0 mg/kg/injection, schedule: Q01DX009 (ip), vehicle: Klucel (hydroxypropylcellulose) (HPC)) 107 % of control; (dose: 12.0 mg/kg/injection, schedule: Q01DX009 (ip), vehicle: Klucel (hydroxypropylcellulose) (HPC)) 115 % of control; (dose: 12.0 mg/kg/injection, schedule: Q01DX009 (ip), vehicle: saline) 95 % of control; (dose: 16.5 mg/kg/injection, schedule: Q04DX003 (ip), vehicle: saline with Tween-80) 106 % of control. In addition, the T/C (dose: 37.5 mg/kg/injection, schedule: Q04DX003 (ip), vehicle: saline) is 94 % of control.

As to `CCC(=O)c1ccc(OC)cc1`, the T/C (dose: 100.0 mg/kg/injection, schedule: Q04DX002 (ip), vehicle: saline with Tween-80) was 91 % of control; the T/C (dose: 200.0 mg/kg/injection, schedule: Q04DX002 (ip), vehicle: saline with Tween-80) was 91 % of control; the T/C under setting [1] is 91 % of control.

Consider `N#CCN1CCOCC1`, for which the T/C (dose: 25.0 mg/kg/injection, schedule: Q01DX009 (ip), vehicle: saline) is 122 % of control; the T/C (dose: 50.0 mg/kg/injection, schedule: Q01DX009 (ip), vehicle: saline) is 101 % of control; the T/C (dose: 100.0 mg/kg/injection, schedule: Q01DX009 (ip), vehicle: saline) is 97 % of control and 98 % of control; the T/C under setting [4] was 103 % of control; the T/C (dose: 200.0 mg/kg/injection, schedule: Q01DX009 (ip), vehicle: saline) is 110 % of control; the T/C under setting [5] is 97 % of control.

In the case of `Cc1nc[nH]c(=O)c1CCC1OCCO1`, the T/C by setting is: under setting [4], 93 % of control; under setting [5], 98 % of control; (dose: 400.0 mg/kg/injection, schedule: Q04DX003 (ip), vehicle: saline) 98 % of control.

Take `O=C(CCN1CC1)Nc1cccc(NC(=O)CCN2CC2)c1`: the T/C is, setting by setting: (dose: 2.5 mg/kg/injection, schedule: Q01DX001 (ip), vehicle: Klucel (hydroxypropylcellulose) (HPC)) 112 % of control; (dose: 40.0 mg/kg/injection, schedule: Q01DX001 (ip), vehicle: Klucel (hydroxypropylcellulose) (HPC)) 153 % of control.

Regarding `c1cc(-n2nnc3cnccc32)ccn1`, the T/C runs as follows: (dose: 6.25 mg/kg/injection, schedule: Q04DX003 (ip), vehicle: saline) 100 % of control; (dose: 12.5 mg/kg/injection, schedule: Q04DX003 (ip), vehicle: saline) 91 % of control; (dose: 25.0 mg/kg/injection, schedule: Q04DX003 (ip), vehicle: saline) 102 % of control; under setting [4], 86 % of control.

`NNC(=O)c1ccccn1`: the T/C by setting is: (dose: 50.0 mg/kg/injection, schedule: Q01DX001 (ip), vehicle: water) 98 % of control; (dose: 75.0 mg/kg/injection, schedule: Q01DX001 (ip), vehicle: water) 98 % of control; (dose: 100.0 mg/kg/injection, schedule: Q01DX009 (ip), vehicle: water) 97 % of control; (dose: 150.0 mg/kg/injection, schedule: Q01DX001 (ip), vehicle: water) 102 % of control.

With `CC1(c2ccc(Cl)s2)C(=O)N(Cl)C(=O)N1Cl` (stereo not given), the T/C reads like this: (dose: 12.5 mg/kg/injection, schedule: Q01DX009 (ip), vehicle: saline with Tween-80) 95 % of control; (dose: 25.0 mg/kg/injection, schedule: Q01DX009 (ip), vehicle: saline with Tween-80) 100 % of control; (dose: 50.0 mg/kg/injection, schedule: Q01DX009 (ip), vehicle: saline with Tween-80) 94 % of control and 89 % of control; under setting [2], 93 % of control; under setting [3], 96 % of control; (dose: 200.0 mg/kg/injection, schedule: Q04DX003 (ip), vehicle: saline with Tween-80) 98 % of control.
